From publication PMC6628435, “Chemical Synthesis, Proper Folding, Nav Channel Selectivity Profile and Analgesic Properties of the Spider Peptide Phlotoxin 1” (Toxins, 2019) come the findings set out here.

What is called inhibition is the change of the read-out against control, counted positive when it falls. What is called IC50 is the concentration at which inhibition is half-maximal. By Hill coefficient is commonly meant a measure of the steepness of the concentration-response curve.

Bridge positions count the residues as written; N and C are the ends. Peptide text beside a SMILES is read from it.

In this test the target is T1, Nav1.7/β1 (Rattus norvegicus, UniProt O08562).
T1 construct: expressed in transfected cells; host or cells: Xenopus laevis oocytes injected with cRNA
T1 sequence (O08562 whole entry): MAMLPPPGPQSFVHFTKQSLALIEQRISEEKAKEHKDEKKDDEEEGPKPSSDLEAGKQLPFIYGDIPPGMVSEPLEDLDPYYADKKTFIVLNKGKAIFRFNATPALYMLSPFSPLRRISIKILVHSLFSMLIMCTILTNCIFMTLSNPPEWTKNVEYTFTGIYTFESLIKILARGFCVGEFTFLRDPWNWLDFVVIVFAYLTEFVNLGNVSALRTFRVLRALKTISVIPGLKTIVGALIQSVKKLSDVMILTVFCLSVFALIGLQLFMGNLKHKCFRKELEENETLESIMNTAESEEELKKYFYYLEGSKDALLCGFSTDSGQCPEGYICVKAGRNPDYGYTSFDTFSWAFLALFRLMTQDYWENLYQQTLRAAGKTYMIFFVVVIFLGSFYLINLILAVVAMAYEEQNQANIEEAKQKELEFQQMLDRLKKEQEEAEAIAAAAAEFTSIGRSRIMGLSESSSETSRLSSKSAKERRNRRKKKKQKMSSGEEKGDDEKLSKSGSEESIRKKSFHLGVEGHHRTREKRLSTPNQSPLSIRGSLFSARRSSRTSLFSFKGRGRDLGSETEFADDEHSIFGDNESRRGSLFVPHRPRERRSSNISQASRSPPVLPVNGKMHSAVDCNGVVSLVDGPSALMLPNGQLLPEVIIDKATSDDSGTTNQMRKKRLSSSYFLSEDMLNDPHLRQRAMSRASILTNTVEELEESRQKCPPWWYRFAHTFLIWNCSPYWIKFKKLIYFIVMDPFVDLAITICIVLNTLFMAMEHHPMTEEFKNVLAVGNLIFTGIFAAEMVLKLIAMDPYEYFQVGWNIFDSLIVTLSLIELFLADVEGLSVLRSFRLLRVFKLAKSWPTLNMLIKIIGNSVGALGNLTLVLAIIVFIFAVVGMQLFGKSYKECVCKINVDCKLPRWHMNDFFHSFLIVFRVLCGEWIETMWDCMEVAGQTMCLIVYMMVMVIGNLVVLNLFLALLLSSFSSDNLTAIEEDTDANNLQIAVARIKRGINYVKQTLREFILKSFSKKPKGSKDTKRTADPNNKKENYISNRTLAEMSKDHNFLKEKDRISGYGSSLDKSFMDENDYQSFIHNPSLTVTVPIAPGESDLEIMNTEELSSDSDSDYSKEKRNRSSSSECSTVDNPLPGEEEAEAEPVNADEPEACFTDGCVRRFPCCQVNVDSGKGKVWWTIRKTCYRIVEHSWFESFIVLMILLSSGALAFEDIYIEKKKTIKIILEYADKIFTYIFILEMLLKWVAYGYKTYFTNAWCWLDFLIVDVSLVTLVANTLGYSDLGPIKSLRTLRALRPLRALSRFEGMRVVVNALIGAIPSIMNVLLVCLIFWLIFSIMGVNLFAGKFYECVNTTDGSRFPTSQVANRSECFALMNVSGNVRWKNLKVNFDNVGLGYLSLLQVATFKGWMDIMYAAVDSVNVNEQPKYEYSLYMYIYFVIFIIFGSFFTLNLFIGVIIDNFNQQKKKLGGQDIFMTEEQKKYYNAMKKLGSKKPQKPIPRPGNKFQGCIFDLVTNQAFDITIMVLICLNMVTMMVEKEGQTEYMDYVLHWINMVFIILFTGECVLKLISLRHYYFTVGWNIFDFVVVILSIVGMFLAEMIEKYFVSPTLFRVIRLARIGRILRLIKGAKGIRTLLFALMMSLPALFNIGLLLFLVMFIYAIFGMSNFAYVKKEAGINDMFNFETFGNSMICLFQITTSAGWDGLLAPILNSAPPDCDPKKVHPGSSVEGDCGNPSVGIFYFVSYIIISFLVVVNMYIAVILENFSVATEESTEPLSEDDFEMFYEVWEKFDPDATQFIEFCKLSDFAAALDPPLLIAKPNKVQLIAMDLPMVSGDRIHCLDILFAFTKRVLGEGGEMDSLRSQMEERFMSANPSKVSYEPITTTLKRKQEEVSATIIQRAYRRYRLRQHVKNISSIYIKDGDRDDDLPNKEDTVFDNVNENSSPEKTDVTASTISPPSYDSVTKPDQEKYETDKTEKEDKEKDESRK
T1 sequence (Q00954 19-218 partner): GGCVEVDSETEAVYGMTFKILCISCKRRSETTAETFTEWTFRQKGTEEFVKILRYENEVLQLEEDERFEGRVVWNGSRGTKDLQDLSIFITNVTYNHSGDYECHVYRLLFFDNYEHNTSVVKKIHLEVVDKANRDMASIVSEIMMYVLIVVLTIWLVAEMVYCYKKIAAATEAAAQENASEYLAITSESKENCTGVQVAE
The experiment in a line: Two-electrode voltage-clamp on Xenopus laevis oocytes expressing Nav1.7/β1. Type of test: cell-based. In general terms: Two-electrode voltage clamp holds a large cell at a set potential and records current.

`CC(C)C[C@@H]1NC(=O)[C@@H](NC(=O)[C@H](C)N)CSSC[C@@H]2NC(=O)[C@@H]3CSSC[C@@H](C(=O)N[C@@H](CCCNC(=N)N)C(=O)N[C@@H](Cc4ccc(O)cc4)C(=O)N[C@@H](CCCCN)C(=O)N[C@@H](CC(C)C)C(=O)N[C@@H](Cc4ccccc4)C(=O)O)NC(=O)[C@H](Cc4c[nH]c5ccccc45)NC(=O)[C@@H]4CCCN4C(=O)[C@H](Cc4ccc(O)cc4)NC(=O)[C@H](CCCCN)NC(=O)[C@H](Cc4c[nH]c5ccccc45)NC(=O)[C@H](CCC(=O)O)NC(=O)[C@H](CSSC[C@H](NC(=O)[C@H](CO)NC(=O)[C@H](CC(=O)O)NC(=O)[C@H](Cc4c[nH]c5ccccc45)NC(=O)[C@H](CCC(N)=O)NC(=O)CNC1=O)C(=O)N[C@@H](CC(=O)O)C(=O)N1CCC[C@H]1C(=O)N[C@@H](CCCCN)C(=O)N[C@@H](C)C(=O)N[C@@H](CO)C(=O)N[C@@H](CCCCN)C(=O)N3)NC(=O)[C@H](C)NC(=O)[C@H](Cc1ccc(O)cc1)NC(=O)[C@H](CC(N)=O)NC(=O)[C@@H]1CCCN1C2=O` [PhlTx1, Phlotoxin-1] (H-ACLGQWDSCDPKASKCCPNYACEWKYPWCRYKLF-OH; disulfide 2-17, 9-22, 16-29; N-terminus and C-terminus assumed): for the setting “1 µM, holding −90 mV, oocytes TEVC, clone rPN1, read-out: inhibition of inward currents”, the inhibition at 1 µM came out at 90 ± 7%. For the same molecule, the 50% inhibitory concentration (IC50) (Xenopus laevis oocytes, stimulus frequency 0.3 Hz, Hill equation fit, n = 4, 0.1% BSA) stood at 0.26 ± 0.046 µM. Further, under “Xenopus laevis oocytes, stimulus frequency 0.3 Hz, n = 4”, the Hill coefficient was found to be 1.3.
